For two compounds, melting point results are on record in patent US6387900B1, “3(5)-ureido-pyrazole derivatives process for their preparation and their use as antitumor agents” (Pharmacia & Upjohn S.p.A., priority 1999, dated 2002).

The melting point is the temperature, or range, at which the solid turns liquid.

`O=C(Nc1ccccc1)Nc1cc(C2CC2)n[nH]1` [Example 1, N-(3-cyclopropyl-1H-pyrazol-5-yl)-N′-phenylurea]: the melting point fell in the range of 162 to 164 °C.
The compound `O=C(NCc1ccc(Cl)cc1Cl)Nc1cc(C2CC2)n[nH]1` [Example 2, N-(3-cyclopropyl-1H-pyrazol-5-yl)-N′-(2,4-dichlorobenzyl)urea] registered a melting point of 177 to 179 °C.
